Columns and labels:
Details in all cases: 48 h
SEM cells [1] = experiment: cell viability relative to DMSO control; higher = less cytotoxic
Summary of the method: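 Viability values are per-plate percentages of DMSO wells, with background from cell-free wells. Library compounds in DMSO were pin-dosed, in an 11-point threefold series from 47 μM to 0.79 nM, onto NOMO1 or SEM (500 cells/well) or P12-Ichikawa (1000 cells/well) leukemia cells in 1536-well plates (5 μl). Those cells had been adapted for at least four passages in each medium, and CellTiter-Glo One luminescence was read after 48 h at 37°C.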

NOMO1 = experiment: AUC of viability dose-response curve (% viability x log10 dose units); higher = less sensitive
Summary of the method: (§1)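 Library compounds in DMSO were applied for 48 h at 37°C at 11 threefold doses (47 μM to 0.79 nM) to medium-adapted leukemia cells in 1536-well plates holding 500 or 1000 cells/well. Luminescence from CellTiter-Glo One was normalised plate by plate against DMSO and cell-free wells. Area under the curve came from trapezoidal integration of a log-logistic fit, after scaling curves that rose above full viability and discarding those that failed quality control. The fit had four parameters and used log10 doses.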

P12-Ichikawa = experiment: as above
Summary of the method: as §1

SEM cells [2] = experiment: as above
Summary of the method: as §1

[3] = RPMI 5 mM glucose + 10% FBS, 0.000781 µM
[4] = RPMI 5 mM glucose + 10% FBS, 0.00234 µM
[5] = RPMI 5 mM glucose + 10% FBS, 0.00702 µM
[6] = RPMI 5 mM glucose + 10% FBS, 0.0211 µM
[7] = RPMI 5 mM glucose + 10% FBS, 0.0632 µM
[8] = RPMI 5 mM glucose + 10% FBS, 0.19 µM
[9] = RPMI 5 mM glucose + 10% FBS, 0.569 µM
[10] = RPMI 5 mM glucose + 10% FBS, 1.71 µM
[11] = RPMI 5 mM glucose + 10% FBS, 5.12 µM
[12] = RPMI 5 mM glucose + 10% FBS, 15.4 µM
[13] = RPMI 5 mM glucose + 10% FBS, 46.1 µM
[14] = RPMI 5 mM glucose + 10% dialyzed FBS
[15] = HPLM + 10% dialyzed FBS, 0.000781 µM
[16] = HPLM + 10% dialyzed FBS, 0.00234 µM
[17] = HPLM + 10% dialyzed FBS, 0.00702 µM
[18] = HPLM + 10% dialyzed FBS, 0.0211 µM
[19] = HPLM + 10% dialyzed FBS, 0.0632 µM
[20] = HPLM + 10% dialyzed FBS, 0.19 µM
[21] = HPLM + 10% dialyzed FBS, 0.569 µM
[22] = HPLM + 10% dialyzed FBS, 1.71 µM
[23] = HPLM + 10% dialyzed FBS, 5.12 µM
[24] = HPLM + 10% dialyzed FBS, 15.4 µM
[25] = HPLM + 10% dialyzed FBS, 46.1 µM

| Compound | cell viability (SEM cells [1]; [3]) [%] | cell viability (SEM cells [1]; [4]) [%] | cell viability (SEM cells [1]; [5]) [%] | cell viability (SEM cells [1]; [6]) [%] | cell viability (SEM cells [1]; [7]) [%] | cell viability (SEM cells [1]; [8]) [%] | cell viability (SEM cells [1]; [9]) [%] | cell viability (SEM cells [1]; [10]) [%] | cell viability (SEM cells [1]; [11]) [%] | cell viability (SEM cells [1]; [12]) [%] | cell viability (SEM cells [1]; [13]) [%] | AUC of viability dose-response curve (NOMO1; HPLM + 10% dialyzed FBS) | AUC of viability dose-response curve (NOMO1; RPMI 5 mM glucose + 10% FBS) | AUC of viability dose-response curve (NOMO1; [14]) | AUC of viability dose-response curve (P12-Ichikawa; HPLM + 10% dialyzed FBS) | AUC of viability dose-response curve (P12-Ichikawa; RPMI 5 mM glucose + 10% FBS) | AUC of viability dose-response curve (P12-Ichikawa; [14]) | AUC of viability dose-response curve (SEM cells [2]; HPLM + 10% dialyzed FBS) | AUC of viability dose-response curve (SEM cells [2]; RPMI 5 mM glucose + 10% FBS) | AUC of viability dose-response curve (SEM cells [2]; [14]) | cell viability (SEM cells [1]; [15]) [%] | cell viability (SEM cells [1]; [16]) [%] | cell viability (SEM cells [1]; [17]) [%] | cell viability (SEM cells [1]; [18]) [%] | cell viability (SEM cells [1]; [19]) [%] | cell viability (SEM cells [1]; [20]) [%] | cell viability (SEM cells [1]; [21]) [%] | cell viability (SEM cells [1]; [22]) [%] | cell viability (SEM cells [1]; [23]) [%] | cell viability (SEM cells [1]; [24]) [%] | cell viability (SEM cells [1]; [25]) [%] |
| --- | --- | --- | --- | --- | --- | --- | --- | --- | --- | --- | --- | --- | --- | --- | --- | --- | --- | --- | --- | --- | --- | --- | --- | --- | --- | --- | --- | --- | --- | --- | --- |
| CC[C@@]1(O)C(=O)OC\C2=C1\C=C3/N(CC4=CC5=C(C=CC(=C5CN(C)C)O)N=C34)C2=O | 101 | 107 | 87.2 | 107 | 68.6 | 22.4 | 11.5 | 12.2 | 6.44 | 4.3 | 4.41 | 306 | 312 | 324 | 225 | 217 | 215 | 245 | 226 | 230 | – | – | – | – | – | – | – | – | – | – | – |
| COc1cc(F)c(C(C)C)cc1-c1ccc(C(F)(F)F)cc1CN1C(=O)O[C@H](c2cc(C(F)(F)F)cc(C(F)(F)F)c2)[C@@H]1C | – | – | – | – | – | – | – | – | – | – | – | 375 | 438 | 444 | 438 | 451 | 459 | 457 | 445 | 441 | – | – | – | – | – | – | – | – | – | – | – |
| CC(C)(Oc1ccc(C2CC2(Cl)Cl)cc1)C(=O)O (stereo not drawn) | 117 | 109 | 101 | 111 | 101 | 110 | 91.9 | 119 | 79.9 | 106 | 49 | 457 | 454 | 453 | 453 | 447 | 453 | 444 | 464 | 456 | 125 | 131 | 123 | 125 | 127 | 128 | 120 | 122 | 95.3 | 110 | 63.6 |
| NC(=O)c1ccc2[nH]ccc2c1 | – | – | – | – | – | – | – | – | – | – | – | 440 | 464 | 460 | 440 | 442 | 430 | 444 | 312 | 438 | – | – | – | – | – | – | – | – | – | – | – |
| C[C@@H]1[C@H](O)[C@@H](C)C=CC=CCCC=CC=CC=CC=C[C@H](O[C@H]2O[C@@H](C)[C@H](O)[C@@H](N)[C@H]2O)CC2O[C@](O)(C[C@@H](O)[C@H](O)CC[C@@H](O)C[C@@H](O)C[C@@H](O)CC(=O)O[C@H]1C)C[C@H](O)[C@H]2C(=O)O | – | – | – | – | – | – | – | – | – | – | – | 458 | 432 | 432 | 459 | 429 | 456 | 451 | 448 | 447 | – | – | – | – | – | – | – | – | – | – | – |
| Nc1nc(Cl)nc2c1ncn2[C@H]1C[C@H](O)[C@@H](CO)O1 | – | – | – | – | – | – | – | – | – | – | – | 256 | 270 | 257 | 263 | 254 | 272 | 238 | 226 | 212 | 114 | 119 | 115 | 133 | 115 | 15.7 | 13.9 | 12.7 | 11.6 | 9.89 | 5.05 |
| CCCCCC[C@H]1C(=O)O[C@H](C)[C@H](NC(=O)c2cccc(NC=O)c2O)C(=O)O[C@@H](C)[C@@H]1OC(=O)CC(C)C | – | – | – | – | – | – | – | – | – | – | – | 444 | 438 | 442 | 417 | 403 | 403 | 476 | 403 | 416 | 90.7 | 130 | 111 | 113 | 115 | 123 | 137 | 111 | 110 | 112 | 101 |

Source: the supplement of paper PMC11451515
